One may read the IC50 as the point on the concentration scale where inhibition reaches its midpoint.

The record followed here is publication doi:10.1101/2025.11.27.690678v1, “Experience from an HTS campaign: Investigation of susceptibility and rescue of SARS-CoV-2 nsp3 protease assay from metal contamination” (biorxiv, 2025).

Bounds are passed on as bounds.

The assay has as its target T1, SARS-CoV-2 nsp3 (Twinstrep nsp3 (179-1329)-His); PLPro (Severe acute respiratory syndrome coronavirus 2, UniProt P0DTD1).
T1 construct: gene rep
Nature of the assay: fluorescence, RLRGG-AMC cleavage. The assay is classed as biochemical. The source says:
fluorescence, RLRGG-AMC cleavage on SARS-CoV-2 nsp3 (Twinstrep nsp3 (179-1329)-His); PLPro
In the case of `O=C(O)c1cn(-c2cccc(C(F)(F)F)c2)nn1` [compound 1, Compound 1], the IC50 is greater than 100 µM. The value for `Cn1ccnc1-c1cn(CCCc2csc(N)n2)nn1` [compound 2, Compound 2] was greater than 100 µM. `COc1ccc(-n2cc(CNC(=O)c3cc[nH]n3)nn2)cc1` [compound 3, Compound 3] returned an IC50 greater than 100 µM. `CC(=O)Nc1ccc(Sc2ccccc2C(=O)O)cn1` [compound 4, Compound 4] gave an IC50 greater than 100 µM.
